US10363239B2, “Method for inhibiting growth of cancer cells” (Pain Therapeutics, Inc., priority 2013, dated 2019)
Read-outs that look alike come from different tables or passages of the source.

Key:
[1] = target: FLNA pentapeptide of SEQ ID NO: 1 (Bn-VAKGL) (Homo sapiens, UniProt P21333); assay: FITC-NLX-based FLNA screening assay (inhibition of FITC-naloxone binding to Bn-VAKGL on streptavidin plates); details: 10 nM FITC-NLX
mu opiate receptor (MOR) = assay: MOR agonist activity using [35S]GTPγS binding assay in striatal membranes; format: biochemical; details: for MOR agonist activity ([35S]GTPγS binding), FLNA-Binding Compound as Agonist 1 μM + BFNA: 1 μM compound + 1 μM β-funaltrexamine
In short: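 Striatal membranes (200 μg) were preincubated 5 min at 30 °C in HEPES pH 7.5 with 100 mM NaCl, 1 mM MgCl2 and 0.5 nM [35S]GTPγS, then 5 min more with 0.1–10 μM compound. Gαo was immunoprecipitated and bound radioactivity counted by scintillation.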

[2] = read-out: Percent Binding Inhibition, FLNA-binding compound 0.01 μM
[3] = read-out: Percent Binding Inhibition, FLNA-binding compound 0.1 μM
[4] = read-out: Percent Binding Inhibition, FLNA-binding compound 1 μM
[5] = Series B, 0.1 μM compound, relative to DAMGO
[6] = Series B, 0.1 μM compound, [35S]GTPγS binding to Gαo, striatal membranes
[7] = Series B, 1 μM compound + 1 μM β-FNA
[8] = Series B, 1 μM compound + β-FNA, relative to DAMGO + BFNA
[9] = Series B, 1 μM compound, relative to DAMGO
[10] = Series B, 1 μM compound, [35S]GTPγS binding to Gαo, striatal membranes
[11] = FLNA-binding compound 0.01 μM, read-out: Percent Binding Inhibition
[12] = FLNA-binding compound 0.1 μM, read-out: Percent Binding Inhibition
[13] = FLNA-binding compound 1 μM, read-out: Percent Binding Inhibition
[14] = Series C-2, 0.1 μM compound, relative to DAMGO
[15] = Series C-2, 0.1 μM compound, [35S]GTPγS binding to Gαo, striatal membranes
[16] = Series C-2, 1 μM compound + 1 μM β-FNA
[17] = Series C-2, 1 μM compound + β-FNA, relative to DAMGO + BFNA
[18] = Series C-2, 1 μM compound, relative to DAMGO
[19] = Series C-2, 1 μM compound, [35S]GTPγS binding to Gαo, striatal membranes
[20] = 0.1 μM compound relative to DAMGO
[21] = 1 μM compound + BFNA relative to DAMGO + BFNA
[22] = 1 μM compound relative to DAMGO

COc1c2c(cc3c1C(CC(=O)CCc1ccc(Cl)cc1)[N+](C)(C)CC3)OCO2 (stereo not drawn) [Compound B0017]
inhibition at 0.01 µM [1, 2]: 28.3%
inhibition at 0.1 µM [1, 3]: 36.6%
inhibition at 1 µM [1, 4]: 44.6%
% DAMGO (0.1 μM) (mu opiate receptor (MOR); [5]): 58.9%
MOR agonist activity, percent [35S]GTPγS binding at the stated compound concentration (mu opiate receptor (MOR); [6]): 99.6%
MOR agonist activity, percent [35S]GTPγS binding at the stated compound concentration (mu opiate receptor (MOR); [7]): 49.6%
% DAMGO + BFNA (mu opiate receptor (MOR); [8]): 75.2%
% DAMGO (1 μM) (mu opiate receptor (MOR); [9]): 45.6%
MOR agonist activity, percent [35S]GTPγS binding at the stated compound concentration (mu opiate receptor (MOR); [10]): 122.0%

COc1ccc(S(=O)(=O)N2CCC3(CC2)NCCO3)cc1 [Compound C0026]
inhibition at 0.01 µM [1, 11]: 42.3%
inhibition at 0.1 µM [1, 12]: 44.8%
inhibition at 1 µM [1, 13]: 49%
% DAMGO (0.1 μM) (mu opiate receptor (MOR); [14]): 107.7%
MOR agonist activity, percent [35S]GTPγS binding at the stated compound concentration (mu opiate receptor (MOR); [15]): 207.2%
MOR agonist activity, percent [35S]GTPγS binding at the stated compound concentration (mu opiate receptor (MOR); [16]): 21.2%
% DAMGO + BFNA (mu opiate receptor (MOR); [17]): 48.3%
% DAMGO (1 μM) (mu opiate receptor (MOR); [18]): 105.6%
MOR agonist activity, percent [35S]GTPγS binding at the stated compound concentration (mu opiate receptor (MOR); [19]): 288.4%

COc1c2c(cc3c1C(CC(O)CCc1ccccc1)N(C)CC3)OCO2 (stereo not drawn) [Compound B0051]
inhibition at 0.01 µM [1, 11]: 29.9%
inhibition at 0.1 µM [1, 12]: 35.7%
inhibition at 1 µM [1, 13]: 43.7%
% DAMGO (0.1 μM) (mu opiate receptor (MOR); [5]): 68.4%
MOR agonist activity, percent [35S]GTPγS binding at the stated compound concentration (mu opiate receptor (MOR); [6]): 115.6%
MOR agonist activity, percent [35S]GTPγS binding at the stated compound concentration (mu opiate receptor (MOR); [7]): 43.8%
% DAMGO + BFNA (mu opiate receptor (MOR); [8]): 263.9%
% DAMGO (1 μM) (mu opiate receptor (MOR); [9]): 76.7%
MOR agonist activity, percent [35S]GTPγS binding at the stated compound concentration (mu opiate receptor (MOR); [10]): 167.9%

CC1CCC(C(C)C)C(OCC(O)CN2CCCCC2C)C1 (stereo not drawn) [Compound A0007]
inhibition at 0.01 µM [1, 2]: 39.2%
inhibition at 0.1 µM [1, 3]: 46.2%
inhibition at 1 µM [1, 4]: 52.9%
MOR agonist activity ([35S]GTPγS binding), FLNA-Binding Compound as Agonist 0.1 μM (mu opiate receptor (MOR); 0.1 μM compound): 102.0%
% DAMGO (0.1 μM) (mu opiate receptor (MOR); [20]): 68.3%
MOR agonist activity ([35S]GTPγS binding), FLNA-Binding Compound as Agonist 1 μM (mu opiate receptor (MOR); 1 μM compound): 221.9%
MOR agonist activity ([35S]GTPγS binding), FLNA-Binding Compound as Agonist 1 μM + BFNA (mu opiate receptor (MOR)): 40.4%
% DAMGO + BFNA (mu opiate receptor (MOR); [21]): 152.5%
% DAMGO (1 μM) (mu opiate receptor (MOR); [22]): 96.4%

COc1ccc(S(=O)(=O)N2CCC3(CC2)NCCC(=O)N3)cc1 [Compound C0142M]
inhibition at 0.01 µM [1, 2]: 35.1%
inhibition at 0.1 µM [1, 3]: 39.4%
inhibition at 1 µM [1, 4]: 56%
% DAMGO (0.1 μM) (mu opiate receptor (MOR); [14]): 97.8%
MOR agonist activity, percent [35S]GTPγS binding at the stated compound concentration (mu opiate receptor (MOR); [15]): 143.7%
MOR agonist activity, percent [35S]GTPγS binding at the stated compound concentration (mu opiate receptor (MOR); [16]): 98.7%
% DAMGO + BFNA (mu opiate receptor (MOR); [17]): 251.1%
% DAMGO (1 μM) (mu opiate receptor (MOR); [18]): 95.2%
MOR agonist activity, percent [35S]GTPγS binding at the stated compound concentration (mu opiate receptor (MOR); [19]): 192.5%

COc1c2c(cc3c1C(CC(=O)c1ccc(C#N)cc1)[N+](C)(C)CC3)OCO2 (stereo not drawn) [Compound B0001]
inhibition at 0.01 µM [1, 2]: 37.1%
inhibition at 0.1 µM [1, 3]: 48.8%
inhibition at 1 µM [1, 4]: 54.3%
% DAMGO (0.1 μM) (mu opiate receptor (MOR); [5]): 77.4%
MOR agonist activity, percent [35S]GTPγS binding at the stated compound concentration (mu opiate receptor (MOR); [6]): 128.2%
MOR agonist activity, percent [35S]GTPγS binding at the stated compound concentration (mu opiate receptor (MOR); [7]): 28.0%
% DAMGO + BFNA (mu opiate receptor (MOR); [8]): 43.1%
% DAMGO (1 μM) (mu opiate receptor (MOR); [9]): 74.9%
MOR agonist activity, percent [35S]GTPγS binding at the stated compound concentration (mu opiate receptor (MOR); [10]): 202.3%

COc1ccc(S(=O)(=O)N2CCSC23CCNCC3)cc1 [S-C0027]
inhibition at 0.01 µM [1, 11]: 39.1%
inhibition at 0.1 µM [1, 12]: 46.5%
inhibition at 1 µM [1, 13]: 53.6%
% DAMGO (0.1 μM) (mu opiate receptor (MOR); [14]): 74.2%
MOR agonist activity, percent [35S]GTPγS binding at the stated compound concentration (mu opiate receptor (MOR); [15]): 156.2%
MOR agonist activity, percent [35S]GTPγS binding at the stated compound concentration (mu opiate receptor (MOR); [16]): 56.2%
% DAMGO + BFNA (mu opiate receptor (MOR); [17]): 98.1%
% DAMGO (1 μM) (mu opiate receptor (MOR); [18]): 84.4%
MOR agonist activity, percent [35S]GTPγS binding at the stated compound concentration (mu opiate receptor (MOR); [19]): 286.8%

COc1ccc(C(=O)CC2c3c(cc4c(c3OC)OCO4)CC[N+]2(C)C)c(O)c1 (stereo not drawn) [Compound B0033]
inhibition at 0.01 µM [1, 2]: 42.1%
inhibition at 0.1 µM [1, 3]: 46.8%
inhibition at 1 µM [1, 4]: 49.4%
% DAMGO (0.1 μM) (mu opiate receptor (MOR); [5]): 77.6%
MOR agonist activity, percent [35S]GTPγS binding at the stated compound concentration (mu opiate receptor (MOR); [6]): 149.3%
MOR agonist activity, percent [35S]GTPγS binding at the stated compound concentration (mu opiate receptor (MOR); [7]): 41.9%
% DAMGO + BFNA (mu opiate receptor (MOR); [8]): 95.4%
% DAMGO (1 μM) (mu opiate receptor (MOR); [9]): 69.2%
MOR agonist activity, percent [35S]GTPγS binding at the stated compound concentration (mu opiate receptor (MOR); [10]): 188.9%

CC1CCC(C(C)C)C(OCC(O)CN2CCCCCC2)C1 (stereo not drawn) [Compound A0013]
inhibition at 0.01 µM [1, 11]: 30.2%
inhibition at 0.1 µM [1, 12]: 40.2%
inhibition at 1 µM [1, 13]: 47.7%
MOR agonist activity ([35S]GTPγS binding), FLNA-Binding Compound as Agonist 0.1 μM (mu opiate receptor (MOR); 0.1 μM compound): 102.1%
% DAMGO (0.1 μM) (mu opiate receptor (MOR); [20]): 57.8%
MOR agonist activity ([35S]GTPγS binding), FLNA-Binding Compound as Agonist 1 μM (mu opiate receptor (MOR); 1 μM compound): 164.8%
MOR agonist activity ([35S]GTPγS binding), FLNA-Binding Compound as Agonist 1 μM + BFNA (mu opiate receptor (MOR)): 86.1%
% DAMGO + BFNA (mu opiate receptor (MOR); [21]): 131.1%
% DAMGO (1 μM) (mu opiate receptor (MOR); [22]): 63.6%
